{"source": "ChEMBL document CHEMBL1140558", "about": "“An atom efficient, solvent-free, green synthesis and antimycobacterial evaluation of 2-amino-6-methyl-4-aryl-8-[(E)-arylmethylidene]-5,6,7,8-tetrahydro-4H-pyrano[3,2-c]pyridine-3-carbonitriles” (2007)", "key": {"[1]": {"tested_on": "Mycobacterium tuberculosis", "assay": "Antimycobacterial activity against Mycobacterium tuberculosis H37Rv by agar dilution method", "type": "functional"}, "[2]": {"tested_on": "Mycolicibacterium smegmatis", "assay": "Antimycobacterial activity against Mycobacterium smegmatis ATCC 14468 by agar dilution method", "type": "functional"}}, "data": [{"smiles": "CN1CC2=C(OC(N)=C(C#N)C2c2ccc(F)cc2)/C(=C/c2ccc(F)cc2)C1", "note": "(centres undefined)", "values": [{"measurement": "MIC", "setting": "[1]", "result": 0.97, "unit": "µM"}, {"measurement": "MIC", "setting": "[2]", "result": 32, "unit": "µM"}]}, {"smiles": "Cc1ccccc1/C=C1\\CN(C)CC2=C1OC(N)=C(C#N)C2c1ccccc1C", "note": "(centres undefined)", "values": [{"measurement": "MIC", "setting": "[1]", "result": 16.3, "unit": "µM"}, {"measurement": "MIC", "setting": "[2]", "result": 32.6, "unit": "µM"}]}, {"smiles": "COc1ccccc1/C=C1\\CN(C)CC2=C1OC(N)=C(C#N)C2c1ccccc1OC", "note": "(centres undefined)", "values": [{"measurement": "MIC", "setting": "[1]", "result": 15.1, "unit": "µM"}, {"measurement": "MIC", "setting": "[2]", "result": 30.1, "unit": "µM"}]}, {"smiles": "CN1CC2=C(OC(N)=C(C#N)C2c2ccccc2)/C(=C/c2ccccc2)C1", "note": "(centres undefined)", "values": [{"measurement": "MIC", "setting": "[1]", "result": 35.2, "unit": "µM"}, {"measurement": "MIC", "setting": "[2]", "result": 70.4, "unit": "µM"}]}, {"smiles": "CN1CC2=C(OC(N)=C(C#N)C2c2cccc(F)c2)/C(=C/c2cccc(F)c2)C1", "note": "(centres undefined)", "values": [{"measurement": "MIC", "setting": "[1]", "result": 0.99, "unit": "µM"}, {"measurement": "MIC", "setting": "[2]", "result": 32, "unit": "µM"}]}, {"smiles": "CN1CC2=C(OC(N)=C(C#N)C2c2ccc(Cl)cc2Cl)/C(=C/c2ccc(Cl)cc2Cl)C1", "note": "(centres undefined)", "values": [{"measurement": "MIC", "setting": "[1]", "result": 25.4, "unit": "µM"}, {"measurement": "MIC", "setting": "[2]", "result": 50.7, "unit": "µM"}]}, {"smiles": "CN1CC2=C(OC(N)=C(C#N)C2c2ccc(N(C)C)cc2)/C(=C/c2ccc(N(C)C)cc2)C1", "note": "(centres undefined)", "values": [{"measurement": "MIC", "setting": "[1]", "result": 0.43, "unit": "µM"}, {"measurement": "MIC", "setting": "[2]", "result": 28.3, "unit": "µM"}]}, {"smiles": "CN1CC2=C(OC(N)=C(C#N)C2/C=C/c2ccccc2)/C(=C/C=C/c2ccccc2)C1", "note": "(centres undefined)", "values": [{"measurement": "MIC", "setting": "[1]", "result": 30.7, "unit": "µM"}, {"measurement": "MIC", "setting": "[2]", "result": 30.7, "unit": "µM"}]}, {"smiles": "COc1ccc(/C=C2\\CN(C)CC3=C2OC(N)=C(C#N)C3c2ccc(OC)cc2)cc1", "note": "(centres undefined)", "values": [{"measurement": "MIC", "setting": "[1]", "result": 30.1, "unit": "µM"}, {"measurement": "MIC", "setting": "[2]", "result": 60.2, "unit": "µM"}]}, {"smiles": "CN1CC2=C(OC(N)=C(C#N)C2c2cccs2)/C(=C/c2cccs2)C1", "note": "(centres undefined)", "values": [{"measurement": "MIC", "setting": "[1]", "result": 68.1, "unit": "µM"}, {"measurement": "MIC", "setting": "[2]", "result": 34.1, "unit": "µM"}]}, {"smiles": "Cc1ccc(/C=C2\\CN(C)CC3=C2OC(N)=C(C#N)C3c2ccc(C)cc2)cc1", "note": "(centres undefined)", "values": [{"measurement": "MIC", "setting": "[1]", "result": 16.3, "unit": "µM"}, {"measurement": "MIC", "setting": "[2]", "result": 65.3, "unit": "µM"}]}, {"smiles": "CN1CC2=C(OC(N)=C(C#N)C2c2ccccc2Cl)/C(=C/c2ccccc2Cl)C1", "note": "(centres undefined)", "values": [{"measurement": "MIC", "setting": "[1]", "result": 1.84, "unit": "µM"}, {"measurement": "MIC", "setting": "[2]", "result": 59, "unit": "µM"}]}, {"smiles": "CN1CC2=C(OC(N)=C(C#N)C2c2cccc([N+](=O)[O-])c2)/C(=C/c2cccc([N+](=O)[O-])c2)C1", "note": "(centres undefined)", "values": [{"measurement": "MIC", "setting": "[1]", "result": 1.75, "unit": "µM"}, {"measurement": "MIC", "setting": "[2]", "result": 56.2, "unit": "µM"}]}, {"smiles": "CN1CC2=C(OC(N)=C(C#N)C2c2ccco2)/C(=C/c2ccco2)C1", "note": "(centres undefined)", "values": [{"measurement": "MIC", "setting": "[1]", "result": 37.3, "unit": "µM"}, {"measurement": "MIC", "setting": "[2]", "result": 37.3, "unit": "µM"}]}, {"smiles": "CN1CC2=C(OC(N)=C(C#N)C2c2ccc(Cl)cc2)/C(=C/c2ccc(Cl)cc2)C1", "note": "(centres undefined)", "values": [{"measurement": "MIC", "setting": "[1]", "result": 0.92, "unit": "µM"}, {"measurement": "MIC", "setting": "[2]", "result": 3.68, "unit": "µM"}]}, {"smiles": "COc1c(N2CCNC(C)C2)c(F)cc2c(=O)c(C(=O)O)cn(C3CC3)c12", "note": "(centres undefined) [GATIFLOXACIN]", "values": [{"measurement": "MIC", "setting": "[1]", "result": 2.08, "unit": "µM"}, {"measurement": "MIC", "setting": "[2]", "result": 2.08, "unit": "µM"}]}, {"smiles": "NNC(=O)c1ccncc1", "note": "[ISONIAZID]", "values": [{"measurement": "MIC", "setting": "[1]", "result": 0.36, "unit": "µM"}, {"measurement": "MIC", "setting": "[2]", "result": 45.6, "unit": "µM"}]}]}
